From PMC7181131, “N-Pyrazinoyl Substituted Amino Acids as Potential Antimycobacterial Agents—the Synthesis and Biological Evaluation of Enantiomers” (Molecules, 2020)
≈ marks a conversion by molar mass, not a printed value. Where two headings read alike, the source gives them in different places.

How the values were obtained:
[1] = tested on: Mtb H37Ra ITM-M006710 (ATCC 9431); experiment: Microplate Alamar Blue Assay (MABA) microdilution, Mtb H37Ra; type: cell-based, Mycobacterium tuberculosis; conditions: for MIC: Mycobacterium tuberculosis
[2] = tested on: Candida tropicalis CCM 8264 (ATCC 750); experiment: Antifungal microdilution broth method, CT; type: cell-based
[3] = tested on: Candida parapsilosis CCM 8260 (ATCC 22019); experiment: Antifungal microdilution broth method, CP; type: cell-based; conditions: Lodderomyces parapsilosis
[4] = tested on: M. smegmatis DSM 43465 (ATCC 607); experiment: Microplate Alamar Blue Assay (MABA) microdilution, M. smegmatis; type: cell-based, Mycobacterium smegmatis
[5] = tested on: Aspergillus flavus CCM 8363; experiment: Antifungal microdilution broth method, AFla; type: cell-based
Method: 6. In vitro antifungal activity screening
Antifungal activity evaluation was performed using a microdilution broth method according to EUCAST instructions (The European Committee on Antimicrobial Susceptibility Testing) with slight modifications. Eight fungal strains (four yeast and four mould strains) were used for antifungal […]
and Trichophyton interdigitale CCM 8377 (ATCC 9533). Tested strains were purchased from the Czech Collection of Microorganisms (CCM, Brno, Czech Republic) or from the American Type Collection Cultures (ATCC, Manassas, VA, USA). Tested compounds were dissolved in DMSO and diluted in a twofold manner with RPMI 1640 medium, with glutamine and 2% glucose, buffered to pH 7.0 with MOPS (3-morpholinopropane-1-sulfonic acid). The final concentration of DMSO in the testing […]
Static incubation was performed in the dark and in humid atmosphere, at 35±2 °C, for 24 and 48 h (72 and 120 h for Trichophyton interdigitale respectively). Positive controls consisted of test microbe solely, while negative controls consisted of cultivation medium and DMSO. Visual inspection and metabolic activity indicator, Alamar Blue (ThermoFisher Scientific), were used for MIC endpoint evaluation. The internal quality standards, amphotericin B (Sigma-Aldrich) and voriconazole (Toronto research Chemicals, CA) were involved in assays (for MIC of standards see Table S5). All experiments were conducted in duplicates.
For the results to be valid, the difference in MIC for one compound determined from two parallel measurements must not be greater than one step on the dilution scale.

[6] = tested on: Trichophyton interdigitale CCM 8377 (ATCC 9533); experiment: Antifungal microdilution broth method, TI; type: cell-based
[7] = tested on: Candida krusei CCM 8271 (ATCC 6258); experiment: Antifungal microdilution broth method, CK; type: cell-based; conditions: Pichia kudriavzevii
[8] = tested on: Candida albicans CCM 8320 (ATCC 24433); experiment: Antifungal microdilution broth method, CA; type: cell-based
[9] = tested on: Klebsiella pneumoniae CCM 4415 (ATCC 10031); experiment: Antibacterial microdilution broth method, KP; conditions: for MIC KP: read after 24 h of incubation; for MIC: Klebsiella pneumoniae
[10] = tested on: Aspergillus fumigatus ATCC 204305; experiment: Antifungal microdilution broth method, AF; type: cell-based
[11] = tested on: Mycobacterium aurum DSM 43999 (ATCC 23366); experiment: Microplate Alamar Blue Assay (MABA) microdilution, M. aurum; type: cell-based
[12] = tested on: Lichtheimia corymbifera CCM 8077; experiment: Antifungal microdilution broth method, LC; type: cell-based
[13] = tested on: Staphylococcus epidermidis CCM 4418 (ATCC 12228); experiment: Antibacterial microdilution broth method, SE; type: cell-based; conditions: 24 h
[14] = Mycolicibacterium smegmatis, pH 6, read-out: MIC M. smegmatis µg/mL
[15] = Mycolicibacterium smegmatis, pH 6.6, read-out: MIC M. smegmatis
[16] = CCM8363, read after 48 h (filamentous fungi), read-out: MIC AFla
[17] = pH 6.6, read-out: MIC Mtb H37Ra
[18] = pH 6, calculated from µg/mL, read-out: MIC Mtb H37Ra
[19] = ATCC204305, 48 h, read-out: MIC AF
[20] = Mycolicibacterium aurum, pH 6, read-out: MIC M. aurum µg/mL
[21] = Mycolicibacterium aurum, pH 6.6, read-out: MIC M. aurum
[22] = CCM8077, 48 h, read-out: MIC LC
[23] = Mycolicibacterium smegmatis, pH 6; read-out: MIC M. smegmatis
[24] = Mycolicibacterium smegmatis, pH 6.6; read-out: MIC M. smegmatis
[25] = Mycolicibacterium aurum, pH 6; read-out: MIC M. aurum
[26] = Mycolicibacterium aurum, pH 6.6; read-out: MIC M. aurum
[27] = internal quality control, 530 nm, inhibition of growth of 90%, 24 h (yeasts), read-out: MIC, spectrophotometric detection
[28] = internal quality control, naked eye, no visible growth, 24 h (yeasts), read-out: MIC, visual detection
[29] = CCM8363, internal quality control, naked eye, no visible growth, 48 h (moulds), read-out: MIC, visual detection
[30] = internal quality control, naked eye, no visible growth, 48 h (moulds), read-out: MIC, visual detection
[31] = ATCC204305, internal quality control, naked eye, no visible growth, 48 h (moulds), read-out: MIC, visual detection
[32] = CCM8077, internal quality control, naked eye, no visible growth, 48 h (moulds), read-out: MIC, visual detection
[33] = 24 h, read-out: MIC, spectrophotometric detection

SMILES	MIC ([2]; 24 h, read-out: MIC CT) [µM]	MIC ([3]; 24 h, read-out: MIC CP) [µM]	MIC [4, 14] [µg/mL]	MIC [4, 15] [µg/mL]	MIC [5, 16] [µM]	MIC ([6]; 48 h, read-out: MIC TI) [µM]	MIC ([7]; 24 h, read-out: MIC CK) [µM]	MIC ([8]; 24 h, read-out: MIC CA) [µM]	MIC KP [9] [µM]	MIC ([1]; pH 6) [µg/mL]	MIC ([1]; pH 6, read-out: MIC Mtb H37Ra) [µg/mL]	MIC [1, 17] [µg/mL]	MIC [1, 18] [µM]	MIC [10, 19] [µM]	MIC [11, 20] [µg/mL]	MIC [11, 21] [µg/mL]	MIC [12, 22] [µM]	MIC ([13]; read-out: MIC SE) [µM]	other results
COC(=O)C(CC(C)C)NC(=O)c1cnc(Cl)cn1 (stereo not drawn)	–	–	–	–	–	–	–	–	–	–	–	–	–	–	–	–	–	–	MIC Mtb H37Ra ([1]; pH 6): 3.91 µg/mL (≈ 13.7 µM); MIC Mtb H37Ra ([1]; pH 6.6): 62.5 µg/mL (≈ 219 µM)
COC(=O)[C@H](C)NC(=O)c1cnccn1 (racemic) [PC-DL-Ala-Me, methyl (pyrazine-2-carbonyl)alaninate]	> 500	> 500	≥ 125	≥ 500	> 500	> 500	250	> 500	> 500	≥ 125	≥ 125	≥ 500	≥ 598	> 500	≥ 125	≥ 500	> 500	> 500	–
O=C(O)c1cn(C2CC2)c2cc(N3CCNCC3)c(F)cc2c1=O [CPX, ciprofloxacin, reference compound]	–	–	–	–	–	–	–	–	–	–	0.25	0.125 to 0.25	0.75	–	–	–	–	–	MIC [4, 23]: 0.0625 to 0.25 µg/mL (≈ 0.189 to 0.754 µM); MIC [4, 24]: 0.0625 to 0.125 µg/mL (≈ 0.189 to 0.377 µM); MIC [11, 25]: 0.0625 µg/mL (≈ 0.189 µM); MIC [11, 26]: 0.0078 to 0.0156 µg/mL (≈ 0.0235 to 0.0471 µM)
CCOC(=O)[C@@H](C)NC(=O)c1cnccn1 [PC-D-Ala-Et, ethyl (pyrazine-2-carbonyl)-D-alaninate]	> 500	> 500	≥ 125	≥ 500	> 500	> 500	> 500	> 500	> 500	≥ 125	≥ 125	≥ 500	≥ 560	> 500	≥ 125	≥ 500	> 500	> 500	–
COC(=O)CC[C@@H](NC(=O)c1cnccn1)C(=O)OC [PC-D-Glu-diMe, dimethyl (pyrazine-2-carbonyl)-D-glutamate]	> 500	> 500	≥ 500	≥ 500	> 500	> 500	> 500	> 500	> 500	≥ 500	≥ 500	≥ 500	≥ 1780	> 500	≥ 500	≥ 500	> 500	> 500	–
COC(=O)[C@@H](COC(C)(C)C)NC(=O)c1cnccn1 [PC-D-OtBu-Ser-Me, methyl O-(tert-butyl)-N-(pyrazine-2-carbonyl)-D-serinate]	> 500	> 500	≥ 500	≥ 500	> 500	> 500	> 500	> 500	> 500	≥ 500	≥ 500	≥ 500	≥ 1780	> 500	≥ 500	≥ 500	> 500	> 500	–
O=C(N[C@@H](CSCc1ccccc1)C(=O)O)c1cnccn1 [PC-L-SBn-Cys, S-benzyL-N-(pyrazine-2-carbonyl)-L-cysteine]	> 250	> 250	≥ 250	≥ 250	> 250	> 250	> 250	> 250	–	62.5	62.5	≥ 250	197	> 250	125 (≈ 394 µM)	≥ 250	> 250	250	–
CO[C@H]1/C=C/O[C@@]2(C)Oc3c(C)c(O)c4c(O)c(c(/C=N/N5CCN(C)CC5)c(O)c4c3C2=O)NC(=O)/C(C)=C\C=C\[C@H](C)[C@H](O)[C@@H](C)[C@@H](O)[C@@H](C)[C@H](OC(C)=O)[C@@H]1C [RIF, rifampicin, reference compound]	–	–	–	–	–	–	–	–	–	–	0.0016 to 0.0062	0.0039 to 0.0078	0.0019 to 0.0075	–	–	–	–	–	MIC [4, 23]: 6.25 to 12.5 µg/mL (≈ 7.59 to 15.2 µM); MIC [4, 24]: 12.5 to 25 µg/mL (≈ 15.2 to 30.4 µM); MIC [11, 25]: 0.39 to 1.56 µg/mL (≈ 0.474 to 1.9 µM); MIC [11, 26]: 0.39 to 0.78 µg/mL (≈ 0.474 to 0.948 µM)
C[C@@H]1[C@H](O)[C@@H](C)/C=C/C=C/C=C/C=C/C=C/C=C/C=C/[C@H](O[C@@H]2O[C@H](C)[C@@H](O)[C@H](N)[C@@H]2O)C[C@@H]2O[C@](O)(C[C@@H](O)C[C@@H](O)[C@H](O)CC[C@@H](O)C[C@@H](O)CC(=O)O[C@H]1C)C[C@H](O)[C@H]2C(=O)O [amphotericin B, reference compound]	–	–	–	–	–	–	–	–	–	–	–	–	–	–	–	–	–	–	MIC [2, 27]: 1 µg/mL; MIC [2, 28]: 1 µg/mL; MIC [3, 27]: 0.5 µg/mL; MIC [3, 28]: 0.5 µg/mL; MIC ([5]; CCM8363, internal quality control, 530 nm, inhibition of growth of 90%, 48 h (moulds), read-out: MIC, spectrophotometric detection): 4 µg/mL; MIC [5, 29]: 4 µg/mL; MIC ([6]; internal quality control, 530 nm, inhibition of growth of 90%, 48 h (moulds), read-out: MIC, spectrophotometric detection): 1 µg/mL; MIC [6, 30]: 1 µg/mL; MIC [7, 27]: 0.5 µg/mL; MIC [7, 28]: 0.5 µg/mL; MIC [8, 27]: 0.5 µg/mL; MIC [8, 28]: 0.5 µg/mL; MIC ([10]; ATCC204305, internal quality control, 530 nm, inhibition of growth of 90%, 48 h (moulds), read-out: MIC, spectrophotometric detection): 1 µg/mL; MIC [10, 31]: 1 µg/mL; MIC ([12]; CCM8077, internal quality control, 530 nm, inhibition of growth of 90%, 48 h (moulds), read-out: MIC, spectrophotometric detection): 0.125 µg/mL; MIC [12, 32]: 0.125 µg/mL
CNC(C)C1CCC(N)C(OC2C(N)CC(N)C(OC3OCC(C)(O)C(NC)C3O)C2O)O1 (stereo not drawn) [gentamicin, reference compound]	–	–	–	–	–	–	–	–	–	–	–	–	–	–	–	–	–	–	MIC ([9]; 24 h, read-out: MIC, visual detection): 0.5 µg/mL (≈ 1.05 µM); MIC ([9]; ATCC10031|CCM4415, 24 h, read-out: MIC, spectrophotometric detection): 0.5 µg/mL (≈ 1.05 µM); MIC ([13]; internal quality control, 530 nm, inhibition of growth of 95%, read-out: MIC, spectrophotometric detection): 0.125 µg/mL; MIC ([13]; internal quality control, naked eye, no visible growth, read-out: MIC, visual detection): 0.125 µg/mL
C[C@@H](c1ncncc1F)[C@](O)(Cn1cncn1)c1ccc(F)cc1F [voriconazole, reference compound]	–	–	–	–	–	–	–	–	–	–	–	–	–	–	–	–	–	–	MIC [2, 33]: 0.0625 µg/mL; MIC [2, 28]: > 16 µg/mL; MIC [3, 33]: 0.03 µg/mL; MIC [3, 28]: > 16 µg/mL; MIC ([5]; CCM8363, 48 h, read-out: MIC, spectrophotometric detection): 1 µg/mL; MIC [5, 29]: > 16 µg/mL; MIC ([6]; 48 h, read-out: MIC, spectrophotometric detection): > 16 µg/mL; MIC [6, 30]: > 16 µg/mL; MIC [7, 33]: 0.25 µg/mL; MIC [7, 28]: > 16 µg/mL; MIC [8, 33]: 0.03 µg/mL; MIC [8, 28]: > 16 µg/mL; MIC ([10]; ATCC204305, 48 h, read-out: MIC, spectrophotometric detection): 0.25 µg/mL; MIC [10, 31]: 1 µg/mL; MIC ([12]; CCM8077, 48 h, read-out: MIC, spectrophotometric detection): > 16 µg/mL; MIC [12, 32]: > 16 µg/mL
